According to ChEMBL document CHEMBL3885881, “DrugMatrix”:

Species on record: Rattus norvegicus
Type: toxicity, organism-based, Sprague-Dawley
Conditions: in vivo, po, 24 h, route oral GAVAGE, time 1 day, […]; for ABSOLUTE BASOPHIL / ABSOLUTE EOSINOPHIL / ABSOLUTE LYMPHOCYTE / ABSOLUTE MONOCYTE / BASOPHIL / EOSINOPHIL / ERYTHROCYTE COUNT / HEMATOCRIT / HEMOGLOBIN / LEUKOCYTE COUNT / LYMPHOCYTE / MEAN CORPUSCULAR HEMOGLOBIN / MEAN CORPUSCULAR HEMOGLOBIN CONCENTRATION / MEAN CORPUSCULAR VOLUME / MONOCYTE / NEUTROPHIL / PLATELET COUNT: tissue Blood; for ALANINE AMINOTRANSFERASE / ALBUMIN / ALKALINE PHOSPHATASE / ASPARTATE AMINOTRANSFERASE / BLOOD UREA NITROGEN / CARBON DIOXIDE / CHLORIDE / CHOLESTEROL / CREATINE PHOSPHOKINASE / CREATININE / GLUCOSE / LACTATE DEHYDROGENASE / LIPASE / PHOSPHORUS / POTASSIUM / SODIUM / TOTAL BILIRUBIN / TOTAL PROTEIN / URIC ACID: tissue Plasma
[1] = 0 mg/kg, vehicle control, dose level Control

Description: DrugMatrix - Regimen: Single

In the case of `Clc1ccc(Cl)cc1` [1,4-DICHLOROBENZENE], the ABSOLUTE BASOPHIL [1] is reported as 46.7 cells/µL, the ABSOLUTE EOSINOPHIL [1] is reported as 130 cells/µL and the ABSOLUTE LYMPHOCYTE [1] is reported as 8720 cells/µL. For the same compound, the ABSOLUTE MONOCYTE [1] was 140 cells/µL, the BASOPHIL [1] was 0.43% and the EOSINOPHIL [1] was 1.33%. The “ERYTHROCYTE COUNT” value [1] was 6.45 x10E6/uL, the HEMATOCRIT [1] was 42.2% and the HEMOGLOBIN [1] was 13.33 G/DL. For the same compound, the “LEUKOCYTE COUNT” value [1] was 10.59 x10E3/uL, the LYMPHOCYTE [1] was 82.13% and the “MEAN CORPUSCULAR HEMOGLOBIN” value [1] was 20.67 pg. For the same compound, the “MEAN CORPUSCULAR HEMOGLOBIN CONCENTRATION” value [1] was 31.6 G/DL, the “MEAN CORPUSCULAR VOLUME” value [1] was 65.4 fL and the MONOCYTE [1] was 1.37%. The NEUTROPHIL [1] was 14.3%, the “PLATELET COUNT” value [1] was 1048.67 x10E3/uL and the “ALANINE AMINOTRANSFERASE” value [1] was 44 u/L. The ALBUMIN [1] was 3.93 G/DL, the “ALKALINE PHOSPHATASE” value [1] was 551.33 u/L and the “ASPARTATE AMINOTRANSFERASE” value [1] was 97 u/L. For the same compound, the “BLOOD UREA NITROGEN” value [1] was 13.5 mg/dL, the “CARBON DIOXIDE” value [1] was 37.33 mmol/L and the CHLORIDE [1] was 102.33 MEQ/L. The CHOLESTEROL [1] was 83 mg/dL, the “CREATINE PHOSPHOKINASE” value [1] was 365.33 u/L and the CREATININE [1] was 0.4 mg/dL. The GLUCOSE [1] was 189 mg/dL, the “LACTATE DEHYDROGENASE” value [1] was 170.33 u/L and the LIPASE [1] was 10.67 u/L. The PHOSPHORUS [1] was 11.53 mg/dL, the POTASSIUM [1] was 5.63 MEQ/L and the SODIUM [1] was 144.33 MEQ/L. The “TOTAL BILIRUBIN” value [1] was 0.4 mg/dL, the “TOTAL PROTEIN” value [1] was 6.27 G/DL and the “URIC ACID” value [1] was 0.87 mg/dL. For the same compound, the ABSOLUTE BASOPHIL (900 mg/kg, dose level High) was 10 cells/µL, the ABSOLUTE EOSINOPHIL (900 mg/kg, dose level High) was 23.3 cells/µL and the ABSOLUTE LYMPHOCYTE (900 mg/kg, dose level High) was 4230 cells/µL. It also gave an ABSOLUTE MONOCYTE (900 mg/kg, dose level High) of 80 cells/µL, a BASOPHIL (900 mg/kg, dose level High) of 0.2% and an EOSINOPHIL (900 mg/kg, dose level High) of 0.5%. For the same compound, the “ERYTHROCYTE COUNT” value (900 mg/kg, dose level High) was 6.97 x10E6/uL, the HEMATOCRIT (900 mg/kg, dose level High) was 46.93% and the HEMOGLOBIN (900 mg/kg, dose level High) was 15 G/DL. The “LEUKOCYTE COUNT” value (900 mg/kg, dose level High) was 5.04 x10E3/uL, the LYMPHOCYTE (900 mg/kg, dose level High) was 83.5% and the “MEAN CORPUSCULAR HEMOGLOBIN” value (900 mg/kg, dose level High) was 21.5 pg. The “MEAN CORPUSCULAR HEMOGLOBIN CONCENTRATION” value (900 mg/kg, dose level High) was 31.97 G/DL, the “MEAN CORPUSCULAR VOLUME” value (900 mg/kg, dose level High) was 67.33 fL and the MONOCYTE (900 mg/kg, dose level High) was 1.67%. For the same compound, the NEUTROPHIL (900 mg/kg, dose level High) was 13.93%, the “PLATELET COUNT” value (900 mg/kg, dose level High) was 1227 x10E3/uL and the “ALANINE AMINOTRANSFERASE” value (900 mg/kg, dose level High) was 45.33 u/L. The ALBUMIN (900 mg/kg, dose level High) was 3.87 G/DL, the “ALKALINE PHOSPHATASE” value (900 mg/kg, dose level High) was 421.33 u/L and the “ASPARTATE AMINOTRANSFERASE” value (900 mg/kg, dose level High) was 99.33 u/L. The “BLOOD UREA NITROGEN” value (900 mg/kg, dose level High) was 12.67 mg/dL, the “CARBON DIOXIDE” value (900 mg/kg, dose level High) was 34.67 mmol/L and the CHLORIDE (900 mg/kg, dose level High) was 103 MEQ/L. For the same compound, the CHOLESTEROL (900 mg/kg, dose level High) was 65.67 mg/dL, the “CREATINE PHOSPHOKINASE” value (900 mg/kg, dose level High) was 827.67 u/L and the CREATININE (900 mg/kg, dose level High) was 0.5 mg/dL. For the same compound, the GLUCOSE (900 mg/kg, dose level High) was 188.67 mg/dL, the “LACTATE DEHYDROGENASE” value (900 mg/kg, dose level High) was 235.33 u/L and the LIPASE (900 mg/kg, dose level High) was 15.67 u/L. For the same compound, the PHOSPHORUS (900 mg/kg, dose level High) was 13.87 mg/dL, the POTASSIUM (900 mg/kg, dose level High) was 6 MEQ/L and the SODIUM (900 mg/kg, dose level High) was 142.67 MEQ/L. For the same compound, the “TOTAL BILIRUBIN” value (900 mg/kg, dose level High) was 0.8 mg/dL, the “TOTAL PROTEIN” value (900 mg/kg, dose level High) was 6.33 G/DL and the “URIC ACID” value (900 mg/kg, dose level High) was 0.7 mg/dL.
